Laboratory results published in patent US7862798B2, “Vitamin-targeted imaging agents” (Endocyte, Inc., priority 2002, dated 2011).
Values belong to the molecule of their own block, whether it stands above or below them.

Experiments:
FR-positive KB tumors = assay: Tissue distribution, KB tumor model (Example 16, Table 5); format: in vivo, nude mice; conditions: for Blood / Heart / Kidney (one) / Liver & Gall Bladder / Lungs / Muscle / Spleen / Stomach, Intestines & Contents / Tumor: 99mTc-labelled conjugate, 4 hours post i.v.
Procedure: The protocols used in this example are similar to those described in Example 11. The ability of ^99mTc-EC11 (peptide-A1), ^99mTc-EC13 (peptide-A3), and ^99mTc-EC14 (peptide-A2) to target tumors in vivo was assessed using the FR-positive KB tumor model.
FR-positive KB tumor cells (0.25×10^6 per animal) were inoculated subcutaneously in the intracapsular region. Fourteen days after tumor cell inoculation, the animals (n=4/group) were injected intravenously with ^99mTc-EC11, ^99mTc-EC13, or ^99mTc-EC14 at the doses (about 12 μg/kg) of the conjugates shown in Table 5 below. Stocks of ^99mTc-EC11, ^99mTc-EC13, and ^99mTc-EC14 solutions were prepared on the day of use as described above. About a 20-fold excess of free folate (about 200 μg/kg) was co-administered to control animals (n=4/group). […] Selected tissues were removed, weighed, and counted in an automatic gamma counter to determine ^99mTc distribution. Uptake of the radiopharmaceutical in terms of percentage injected dose of wet weight tissue (% ID/g) was calculated by reference to standards prepared from dilutions of the injected preparation.

FR-positive M109 tumors = assay: Tissue distribution, subcutaneous M109 tumors (Example 11)
Procedure: The ability of ^99mTc-EC20 to target tumors in vivo was assessed using a FR-positive M109 model.
Four to five week-old mice (Balb/c strain) were purchased from Harlan Sprague Dawley, Inc. (Indianapolis, Ind.) and were maintained on a folate-free diet for a total of three weeks prior to the experiment. Syngeneic, FR-positive M109 tumor cells (1×10^6 per animal) were inoculated in the subcutis of the right axilla two weeks prior to the experiment.
Animals received an approximate 40 μmol/kg i.v. dose of test article in 100 μL volume via a lateral tail vein during brief diethyl ether anesthesia. Four hours post-injection, animals were sacrificed by CO2 asphyxiation, and dissected. Selected tissues were removed, weighed, and counted to determine ^99mTc distribution. CPM values were decay-corrected, and results were tabulated as % injected dose per gram of wet weight tissue.

[1] = folic acid dihydrate co-injected (about 200 μg/kg)
[2] = folic acid dihydrate co-injected
[3] = 4 hr post i.v., + Folic acid (100 equivalents)
[4] = 4 hr post intravenous injection

Stomach, Intestines & Contents (FR-positive KB tumors; [1]): 3.7 ± 0.7 Percentage of Injected 99mTc D
Heart (FR-positive KB tumors; no folic acid): 1.6 ± 0.1 Percentage of Injected 99mTc D
Liver & Gall Bladder (FR-positive KB tumors; no folic acid): 3.5 ± 0.7 Percentage of Injected 99mTc D
Lungs (FR-positive KB tumors; no folic acid): 1.1 ± 0.1 Percentage of Injected 99mTc D
Muscle (FR-positive KB tumors; no folic acid): 1.7 ± 0.2 Percentage of Injected 99mTc D
Stomach, Intestines & Contents (FR-positive KB tumors; no folic acid): 2.5 ± 0.2 Percentage of Injected 99mTc D
Tumor/Blood (FR-positive KB tumors; [2]): 10.2 ± 1.5.^
Tumor/Kidney (FR-positive KB tumors; [2]): 0.058 ± 0.010
Tumor/Liver (FR-positive KB tumors; [2]): 2.6 ± 0.3
Tumor/Muscle (FR-positive KB tumors; [2]): 8.2 ± 2.0
Tumor/Blood (FR-positive KB tumors; no folic acid): 22.5 ± 1.4
Tumor/Kidney (FR-positive KB tumors; no folic acid): 0.10 ± 0.01
Tumor/Liver (FR-positive KB tumors; no folic acid): 1.6 ± 0.2
Tumor/Muscle (FR-positive KB tumors; no folic acid): 3.3 ± 0.3
Structure (SMILES): Nc1nc2ncc(CNc3ccc(C(=O)N[C@@H](CCC(=O)NC[C@H](N)C(=O)N[C@@H](CO)C(=O)N[C@@H](CS)C(=O)O)C(=O)O)cc3)nc2c(=O)[nH]1 [EC13]
Blood (FR-positive KB tumors; [1]): 0.16 ± 0.02 Percentage of Injected 99mTc D
Heart (FR-positive KB tumors; [1]): 0.20 ± 0.03 Percentage of Injected 99mTc D
Kidney (one) (FR-positive KB tumors; [1]): 29.1 ± 2.2 Percentage of Injected 99mTc D
Liver & Gall Bladder (FR-positive KB tumors; [1]): 0.65 ± 0.04 Percentage of Injected 99mTc D
Lungs (FR-positive KB tumors; [1]): 0.23 ± 0.02 Percentage of Injected 99mTc D
Muscle (FR-positive KB tumors; [1]): 0.21 ± 0.03 Percentage of Injected 99mTc D
Spleen (FR-positive KB tumors; [1]): 0.15 ± 0.02 Percentage of Injected 99mTc D
Tumor (FR-positive KB tumors; [1]): 1.67 ± 0.24 Percentage of Injected 99mTc D
Blood (FR-positive KB tumors; no folic acid): 0.25 ± 0.03 Percentage of Injected 99mTc D
Kidney (one) (FR-positive KB tumors; no folic acid): 54.5 ± 2.4 Percentage of Injected 99mTc D
Spleen (FR-positive KB tumors; no folic acid): 0.39 ± 0.06 Percentage of Injected 99mTc D
Tumor (FR-positive KB tumors; no folic acid, KB tumor): 5.46 ± 0.45 Percentage of Injected 99mTc D

Tumor (FR-positive KB tumors; [1]): 2.0 ± 0.5 Percentage of Injected 99mTc D
Heart (FR-positive KB tumors; no folic acid): 3.0 ± 0.5 Percentage of Injected 99mTc D
Liver & Gall Bladder (FR-positive KB tumors; no folic acid): 4.5 ± 1.0 Percentage of Injected 99mTc D
Lungs (FR-positive KB tumors; no folic acid): 1.6 ± 0.3 Percentage of Injected 99mTc D
Muscle (FR-positive KB tumors; no folic acid): 2.4 ± 0.4 Percentage of Injected 99mTc D
Stomach, Intestines & Contents (FR-positive KB tumors; no folic acid): 1.4 ± 0.1 Percentage of Injected 99mTc D
Tumor/Blood (FR-positive KB tumors; [2]): 17.0 ± 4.5
Tumor/Kidney (FR-positive KB tumors; [2]): 0.10 ± 0.01
Tumor/Liver (FR-positive KB tumors; [2]): 3.0 ± 0.6
Tumor/Muscle (FR-positive KB tumors; [2]): 7.7 ± 1.7
Tumor/Blood (FR-positive KB tumors; no folic acid): 29.3 ± 5.2
Tumor/Kidney (FR-positive KB tumors; no folic acid): 0.13 ± 0.03
Tumor/Liver (FR-positive KB tumors; no folic acid): 1.3 ± 0.3
Tumor/Muscle (FR-positive KB tumors; no folic acid): 2.4 ± 0.6
Structure (SMILES): Nc1nc2ncc(CNc3ccc(C(=O)N[C@@H](CCC(=O)N[C@H](CCC(=O)NC[C@H](N)C(=O)N[C@@H](CC(=O)O)C(=O)N[C@@H](CS)C(=O)O)C(=O)O)C(=O)O)cc3)nc2c(=O)[nH]1 [EC14, Pte-D-Glu-D-Glu-βDpr-Asp-Cys]
Blood (FR-positive KB tumors; [1]): 0.12 ± 0.02 Percentage of Injected 99mTc D
Heart (FR-positive KB tumors; [1]): 0.24 ± 0.01 Percentage of Injected 99mTc D
Kidney (one) (FR-positive KB tumors; [1]): 20.6 ± 2.4 Percentage of Injected 99mTc D
Liver & Gall Bladder (FR-positive KB tumors; [1]): 0.66 ± 0.07 Percentage of Injected 99mTc D
Lungs (FR-positive KB tumors; [1]): 0.24 ± 0.02 Percentage of Injected 99mTc D
Muscle (FR-positive KB tumors; [1]): 0.26 ± 0.02 Percentage of Injected 99mTc D
Spleen (FR-positive KB tumors; [1]): 0.15 ± 0.01 Percentage of Injected 99mTc D
Stomach, Intestines & Contents (FR-positive KB tumors; [1]): 0.50 ± 0.10 Percentage of Injected 99mTc D
Blood (FR-positive KB tumors; no folic acid): 0.19 ± 0.02 Percentage of Injected 99mTc D
Kidney (one) (FR-positive KB tumors; no folic acid): 44.2 ± 6.4 Percentage of Injected 99mTc D
Spleen (FR-positive KB tumors; no folic acid): 0.41 ± 0.06 Percentage of Injected 99mTc D
Tumor (FR-positive KB tumors; no folic acid, KB tumor): 5.57 ± 0.76 Percentage of Injected 99mTc D

accumulation in FR-positive KB tumors and kidneys on co-administration of free folate (FR-positive KB tumors; about 20-fold excess of free folate): blocked
Structure (SMILES): Nc1nc2ncc(CNc3ccc(C(=O)N[C@@H](CCC(=O)NC[C@@H]4[NH2+][99Tc-]56(=[O])[S]C[C@@H](C(=O)O)[N]5C(=O)[C@H](CO)[N]6C4=O)C(=O)O)cc3)nc2c(=O)[nH]1 [^99mTc-EC13]

Tumor/Blood (FR-positive M109 tumors; [3]): 5.00 ± 4.60
Tumor/Blood (FR-positive M109 tumors; [4]): 102 ± 43.4
Structure (SMILES): Nc1nc2ncc(CNc3ccc(C(=O)N[C@@H](CCC(=O)NCCNC(=O)CN(CCN(CCN(CC(=O)[O-])CC(=O)[O-])CC(=O)[O-])CC(=O)[O-])C(=O)O)cc3)nc2c(=O)[nH]1.[111In] [^111In-DTPA-Folate, reference compound]
Blood (FR-positive M109 tumors; [3]): 0.09 ± 0.04 % Injected Dose per Gram Tissue
Heart (FR-positive M109 tumors; [3]): 0.06 ± 0.02 % Injected Dose per Gram Tissue
Intestine (FR-positive M109 tumors; [3]): 0.82 ± 0.14 % Injected Dose per Gram Tissue
Kidney (FR-positive M109 tumors; [3]): 3.14 ± 1.96 % Injected Dose per Gram Tissue
Liver (FR-positive M109 tumors; [3]): 0.81 ± 0.03 % Injected Dose per Gram Tissue
Lung (FR-positive M109 tumors; [3]): 0.09 ± 0.2 % Injected Dose per Gram Tissue
Muscle (FR-positive M109 tumors; [3]): 0.05 ± 0.04 % Injected Dose per Gram Tissue
Spleen (FR-positive M109 tumors; [3]): 1.46 ± 0.73 % Injected Dose per Gram Tissue
Stomach (FR-positive M109 tumors; [3]): 0.25 ± 0.20 % Injected Dose per Gram Tissue
Tumor (FR-positive M109 tumors; [3]): 0.46 ± 0.42 % Injected Dose per Gram Tissue
Blood (FR-positive M109 tumors; [4]): 0.21 ± 0.10 % Injected Dose per Gram Tissue
Heart (FR-positive M109 tumors; [4]): 2.57 ± 0.82 % Injected Dose per Gram Tissue
Intestine (FR-positive M109 tumors; [4]): 1.87 ± 0.69 % Injected Dose per Gram Tissue
Kidney (FR-positive M109 tumors; [4]): 191 ± 79.2 % Injected Dose per Gram Tissue
Liver (FR-positive M109 tumors; [4]): 5.21 ± 2.63 % Injected Dose per Gram Tissue
Lung (FR-positive M109 tumors; [4]): 1.72 ± 0.61 % Injected Dose per Gram Tissue
Muscle (FR-positive M109 tumors; [4]): 1.19 ± 0.48 % Injected Dose per Gram Tissue
Spleen (FR-positive M109 tumors; [4]): 3.30 ± 2.33 % Injected Dose per Gram Tissue
Stomach (FR-positive M109 tumors; [4]): 1.62 ± 0.65 % Injected Dose per Gram Tissue
